Laboratory results reported in patent US11660275B2, “Epilepsy treatment agent” (Eisai R&D Management Co., Ltd., priority 2018, dated 2023).

Assays:
[1] = test system: mouse sound-induced convulsion model; experiment: Mouse sound-induced convulsion model (tonic convulsion, hindlimb extension); assay type: in vivo; settings: 0.5 h, DBA/2 JJcl mice, oral, sound stimulation 30 minutes after administration, % Tonic convulsion, regression analysis
Method: A mouse sound-induced convulsion model test was carried out to confirm the suppressive effect on convulsions. Tonic convulsion induced by sound stimulation is used as the index for evaluation in this model (European Journal of Pharmacology, 222, p 193-203(1992)).
Three-week-old male DBA/2 JJcl mice (Clea Japan, Inc.) were provided for the test (n=5 for each treatment, total 2 times). Tonic convulsion induced by sound stimulation was used as the indicator for evaluation (see aforementioned publication).
Compound (Ia) and/or compound (11) was dissolved in a 0.4% methyl cellulose/5% cremophor/5% IN hydrochloric acid/10% dimethyl sulfoxide solution for an administered dose of 20 mL/kg each to prepare samples which were orally administered. A mixed solution without the compound (vehicle) was used as a negative control. Sound stimulation (11 kHz, 115 dB, duration: 30 sec) was carried out 30 minutes after administration of the samples, to induce convulsions. Immediately after cessation of the sound stimulation, tonic convulsion was evaluated by observing the presence or absence of hindlimb extension. […]

mouse kindling models = settings: PTL 1; cited from earlier work

N#Cc1ccccc1-c1cc(-c2ccccn2)cn(-c2ccccc2)c1=O [compound (II), 3-(2-cyanophenyl)-5-(2-pyridyl)-1-phenyl-1,2-dihydropyridin-2-one, reference compound]
ED50 [1]: 0.33 mg/kg

NS(=O)(=O)N[C@H]1c2c(F)cc(F)cc2CC1(F)F [compound (Ia), N-[(1S)-2,2,5,7-tetrafluoro-2,3-dihydro-1H-inden-1-yl]sulfamide]
effect on seizure severity (score) (mouse kindling models): ameliorating effect | ED50 [1]: 53 mg/kg

NS(=O)(=O)N[C@H]1c2c(F)ccc(F)c2CC1(F)F [compound (Ib), N-[(1S)-2,2,4,7-tetrafluoro-2,3-dihydro-1H-inden-1-yl]sulfamide]
effect on seizure severity (score) (mouse kindling models): ameliorating effect

NS(=O)(=O)N[C@H]1c2c(F)c(F)cc(F)c2CC1(F)F [compound (Ic), (+)-N-(2,2,4,6,7-pentafluoro-2,3-dihydro-1H-inden-1-yl)sulfamide]
effect on seizure severity (score) (mouse kindling models): ameliorating effect
